What all share (assay type): biochemical
Test [1] deals with T1, JAK3 (Homo sapiens, UniProt P52333).
T1 sequence (P52333 1-1124): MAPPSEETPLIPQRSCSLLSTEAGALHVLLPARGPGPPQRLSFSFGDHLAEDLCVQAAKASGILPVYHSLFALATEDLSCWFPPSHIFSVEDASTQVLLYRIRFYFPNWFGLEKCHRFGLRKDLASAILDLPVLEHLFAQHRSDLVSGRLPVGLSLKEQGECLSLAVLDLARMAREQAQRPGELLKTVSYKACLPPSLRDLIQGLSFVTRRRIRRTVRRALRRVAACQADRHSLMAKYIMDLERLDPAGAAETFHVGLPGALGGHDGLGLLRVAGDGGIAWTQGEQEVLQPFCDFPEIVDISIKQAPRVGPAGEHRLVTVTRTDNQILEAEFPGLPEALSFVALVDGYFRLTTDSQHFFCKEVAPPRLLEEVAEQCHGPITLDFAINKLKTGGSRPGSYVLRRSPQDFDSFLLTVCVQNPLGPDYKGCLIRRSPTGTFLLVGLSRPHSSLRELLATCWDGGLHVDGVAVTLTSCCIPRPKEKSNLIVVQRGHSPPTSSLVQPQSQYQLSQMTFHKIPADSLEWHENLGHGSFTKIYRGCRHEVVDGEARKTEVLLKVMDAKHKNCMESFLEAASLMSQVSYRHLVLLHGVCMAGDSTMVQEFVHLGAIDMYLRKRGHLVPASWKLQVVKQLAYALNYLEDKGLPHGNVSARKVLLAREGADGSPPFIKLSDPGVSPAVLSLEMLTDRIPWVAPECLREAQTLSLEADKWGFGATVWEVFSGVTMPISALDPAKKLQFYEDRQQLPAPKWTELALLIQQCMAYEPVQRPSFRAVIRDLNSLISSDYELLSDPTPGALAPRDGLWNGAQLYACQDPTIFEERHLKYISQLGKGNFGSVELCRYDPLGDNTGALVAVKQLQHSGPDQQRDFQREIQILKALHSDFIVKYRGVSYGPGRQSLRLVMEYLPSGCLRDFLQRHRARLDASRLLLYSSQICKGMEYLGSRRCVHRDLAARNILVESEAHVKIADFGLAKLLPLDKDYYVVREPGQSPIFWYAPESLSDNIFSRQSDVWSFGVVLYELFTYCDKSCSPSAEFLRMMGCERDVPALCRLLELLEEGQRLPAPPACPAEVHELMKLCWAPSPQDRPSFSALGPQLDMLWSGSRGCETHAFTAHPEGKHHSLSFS
Description: Inhibition of a panel of kinases, in vitro HotSpot kinase assay: JAK3. Particulars: read-out: IC50 JAK3.

The target in test [2] is EGFR (Homo sapiens, UniProt P00533). The experiment in a line: Inhibition of a panel of kinases, in vitro HotSpot kinase assay: EGFR. On the procedure:
(§1) The degree of inhibition of a panel of kinases is determined using the in vitro HotSpot kinase assay (purified enzymes, ^33P-ATP, an appropriate substrate and 1 μM ATP).

Test [3] concerns the target SRC (Homo sapiens, UniProt P12931). The experiment in a line: Inhibition of a panel of kinases, in vitro HotSpot kinase assay: SRC. The method, then:
as §1

Test [4] concerns the target T2, TEC (Homo sapiens, UniProt P42680).
T2 sequence (P42680 1-631): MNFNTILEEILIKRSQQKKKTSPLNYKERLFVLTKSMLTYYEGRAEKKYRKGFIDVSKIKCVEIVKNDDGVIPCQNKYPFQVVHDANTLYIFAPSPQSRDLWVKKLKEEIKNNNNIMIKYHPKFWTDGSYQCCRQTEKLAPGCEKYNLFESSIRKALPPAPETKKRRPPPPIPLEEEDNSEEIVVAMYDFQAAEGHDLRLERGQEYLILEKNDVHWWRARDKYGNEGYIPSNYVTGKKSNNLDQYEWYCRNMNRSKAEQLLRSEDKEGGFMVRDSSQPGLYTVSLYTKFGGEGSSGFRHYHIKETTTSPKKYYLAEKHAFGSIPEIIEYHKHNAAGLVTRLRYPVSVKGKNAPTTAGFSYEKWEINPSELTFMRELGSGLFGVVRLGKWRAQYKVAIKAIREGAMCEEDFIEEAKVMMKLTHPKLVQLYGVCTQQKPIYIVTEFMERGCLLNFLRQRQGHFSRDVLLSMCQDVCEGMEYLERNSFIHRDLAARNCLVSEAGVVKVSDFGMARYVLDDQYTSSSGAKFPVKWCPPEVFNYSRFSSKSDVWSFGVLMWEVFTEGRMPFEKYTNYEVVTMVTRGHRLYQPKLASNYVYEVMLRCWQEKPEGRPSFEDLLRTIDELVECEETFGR
The experiment in a line: Inhibition of a panel of kinases, in vitro HotSpot kinase assay: TEC. The method, then: as §1

[5] abbreviates: Table 13, A compounds, 1 μM ATP.

For orientation: IC50 means the concentration that inhibits the measured activity by half.

Like-named read-outs stand apart in the source and are kept apart here.

Chain of EGFR (P00533 25-1210): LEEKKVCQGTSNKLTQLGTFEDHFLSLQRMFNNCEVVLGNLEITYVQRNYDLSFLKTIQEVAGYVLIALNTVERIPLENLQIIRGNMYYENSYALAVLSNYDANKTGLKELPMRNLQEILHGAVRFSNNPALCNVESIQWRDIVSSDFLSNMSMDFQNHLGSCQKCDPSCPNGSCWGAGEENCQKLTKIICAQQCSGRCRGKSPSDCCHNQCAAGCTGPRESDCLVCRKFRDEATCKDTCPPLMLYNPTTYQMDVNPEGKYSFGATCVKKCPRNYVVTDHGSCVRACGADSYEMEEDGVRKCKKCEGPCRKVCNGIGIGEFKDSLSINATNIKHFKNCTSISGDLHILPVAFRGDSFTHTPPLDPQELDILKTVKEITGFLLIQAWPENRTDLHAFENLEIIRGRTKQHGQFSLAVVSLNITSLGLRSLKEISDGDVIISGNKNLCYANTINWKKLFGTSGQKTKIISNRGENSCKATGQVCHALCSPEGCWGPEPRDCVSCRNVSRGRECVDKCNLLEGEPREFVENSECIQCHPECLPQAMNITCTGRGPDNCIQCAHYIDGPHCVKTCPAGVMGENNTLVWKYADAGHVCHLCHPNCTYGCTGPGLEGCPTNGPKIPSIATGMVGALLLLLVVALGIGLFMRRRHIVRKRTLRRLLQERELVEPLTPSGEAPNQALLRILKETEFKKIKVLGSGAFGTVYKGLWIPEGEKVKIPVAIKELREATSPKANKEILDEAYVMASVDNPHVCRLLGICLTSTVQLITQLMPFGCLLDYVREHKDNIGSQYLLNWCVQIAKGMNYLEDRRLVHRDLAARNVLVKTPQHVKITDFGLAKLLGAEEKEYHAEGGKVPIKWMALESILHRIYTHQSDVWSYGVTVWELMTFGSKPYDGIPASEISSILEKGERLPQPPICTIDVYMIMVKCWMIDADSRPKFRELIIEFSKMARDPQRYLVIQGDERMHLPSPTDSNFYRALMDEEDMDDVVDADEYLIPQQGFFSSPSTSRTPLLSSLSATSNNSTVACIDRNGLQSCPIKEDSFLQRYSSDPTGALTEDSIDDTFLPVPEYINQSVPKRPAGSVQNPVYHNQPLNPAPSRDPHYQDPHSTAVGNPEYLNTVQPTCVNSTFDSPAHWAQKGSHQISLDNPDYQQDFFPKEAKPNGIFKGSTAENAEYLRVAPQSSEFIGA
Chain of SRC (P12931 whole entry): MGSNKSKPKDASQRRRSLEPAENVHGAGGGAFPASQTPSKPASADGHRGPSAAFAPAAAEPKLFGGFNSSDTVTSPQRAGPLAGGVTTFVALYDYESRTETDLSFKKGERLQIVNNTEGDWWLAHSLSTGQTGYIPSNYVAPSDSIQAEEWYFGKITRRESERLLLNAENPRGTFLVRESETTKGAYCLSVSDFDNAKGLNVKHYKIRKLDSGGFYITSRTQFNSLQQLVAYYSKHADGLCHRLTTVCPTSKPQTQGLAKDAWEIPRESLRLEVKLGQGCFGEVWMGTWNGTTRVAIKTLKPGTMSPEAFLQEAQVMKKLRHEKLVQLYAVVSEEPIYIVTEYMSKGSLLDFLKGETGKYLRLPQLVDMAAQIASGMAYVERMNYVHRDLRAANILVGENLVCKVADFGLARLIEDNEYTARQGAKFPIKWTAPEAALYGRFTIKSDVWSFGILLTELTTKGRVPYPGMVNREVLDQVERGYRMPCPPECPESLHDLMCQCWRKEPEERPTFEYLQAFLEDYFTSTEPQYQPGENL

Take `C[C@@H]1[C@H](NC(=O)c2ccc(C3CC3)cn2)CCCN1c1cnc(C(N)=O)c(Nc2ccc(N3CCN(C)CC3)cc2)n1` [Example A-179, 5-[(2R,3R)-3-(5-cyclopropyl-pyridine-2-amido)-2-methylpiperidin-1-yl]-3-{[4-(4-methylpiperazin-1-yl)phenyl]amino}pyrazine-2-carboxamide]: the IC50 was 1000 to 10000 nM in test [1] (setting [5]), 100 to 1000 nM in test [2] (setting [5]), 10 to 100 nM in test [3] (setting [5]) and 10 to 100 nM in test [4] (setting [5]).

Regarding `C=CC(=O)N1CC[C@@H](N(C)c2cnc(C(N)=O)c(Nc3ccc(C4CCN(C5CCCC5)CC4)cc3)n2)C1` [Example E-109, (R)-5-((1-acryloylpyrrolidin-3-yl)(methyl)amino)-3-(4-(1-cyclopentylpiperidin-4-yl)phenylamino)pyrazine-2-carboxamide], the IC50 in test [1] (E compounds, Table 17) was less than 10 nM; in test [2] (E compounds, Table 17) it was 10 to 100 nM; in test [3] (E compounds, Table 17) it was 10 to 100 nM; in test [4] (E compounds, Table 17) it was no more than 10 nM.

As for `C[C@@H]1[C@H](NC(=O)c2noc(C(C)(C)C)n2)CCCN1c1cnc(C(N)=O)c(Nc2cnn(C)c2)n1` [Example E-149, 5-(tert-butyl)-N-((2R,3R)-1-(5-carbamoyl-6-((1-methyl-1H-pyrazol-4-yl)amino)pyrazin-2-yl)-2-methylpiperidin-3-yl)-1,2,4-oxadiazole-3-carboxamide], the IC50 was in the range of 1000 to 10000 nM in test [1] (E compounds, Table 17); 1000 to 10000 nM in test [2] (E compounds, Table 17); 1000 to 10000 nM in test [3] (E compounds, Table 17); 100 to 1000 nM in test [4] (E compounds, Table 17).

On to `C[C@@H]1[C@H](NC(=O)c2ccc3c(c2)C(C)(C)OC3)CCCN1c1cnc(C(N)=O)c(Nc2cnn(C)c2)n1` [Example E-153, 5-((2R,3R)-3-(3,3-dimethyl-1,3-dihydroisobenzofuran-5-carboxamido)-2-methylpiperidin-1-yl)-3-((1-methyl-1H-pyrazol-4-yl)amino)pyrazine-2-carboxamide], for which the IC50 in test [1] (E compounds, Table 17) was 1000 to 10000 nM; in test [2] (E compounds, Table 17) it was 1000 to 10000 nM; in test [3] (E compounds, Table 17), 10 to 100 nM; in test [4] (E compounds, Table 17), no more than 10 nM.

For the molecule `C[C@@H]1[C@H](NC(=O)c2ccc(-c3ncco3)cc2)CCCN1c1cnc(C(N)=O)c(Nc2cnn(C)c2)n1` [Example E-154, 3-((1-methyl-1H-pyrazol-4-yl)amino)-5-((2R,3R)-2-methyl-3-(4-(oxazol-2-yl)benzamido)piperidin-1-yl)pyrazine-2-carboxamide], the IC50 in test [1] (E compounds, Table 17) was 100 to 1000 nM; in test [2] (E compounds, Table 17), 1000 to 10000 nM; in test [3] (E compounds, Table 17), 10 to 100 nM; in test [4] (E compounds, Table 17), no more than 10 nM.

With `C[C@@H]1[C@H](NC(=O)c2ccc(C3CC3)cc2F)CCCN1c1cnc(C(N)=O)c(Nc2ccc(N3CCN(C4CCCC4)CC3)cc2)n1` [Example A-125, 3-{[4-(4-cyclopentylpiperazin-1-yl)phenyl]amino}-5-[(2R,3R)-3-(4-cyclopropyl-2-fluorobenzamido)-2-methylpiperidin-1-yl]pyrazine-2-carboxamide], the IC50 in test [1] (setting [5]) was in the range of 100 to 1000 nM; in test [2] (setting [5]) it was 100 to 1000 nM; in test [3] (setting [5]), 10 to 100 nM; in test [4] (setting [5]) it was 10 to 100 nM.

On to `C[C@@H]1[C@H](NC(=O)c2ccc3oc(C4CC4)nc3c2)CCCN1c1cnc(C(N)=O)c(Nc2cnn(C)c2)n1` [Example E-139, N-((2R,3R)-1-(5-carbamoyl-6-((1-methyl-1H-pyrazol-4-yl)amino)pyrazin-2-yl)-2-methylpiperidin-3-yl)-2-cyclopropylbenzo[d] oxazole-5-carboxamide], for which the IC50 is 100 to 1000 nM in test [1] (E compounds, Table 17); 100 to 1000 nM in test [2] (E compounds, Table 17); 10 to 100 nM in test [3] (E compounds, Table 17); no more than 10 nM in test [4] (E compounds, Table 17).

In the case of `C[C@@H]1[C@H](NC(=O)c2ccc(C3CC3)cc2)CCCN1c1cnc(C(N)=O)c(Nc2ccc(N3CCN(C)C[C@@H]3C)cc2)n1` [Example E-148, 5-((2R,3R)-3-(4-cyclopropylbenzamido)-2-methylpiperidin-1-yl)-3-((4-((S)-2,4-dimethylpiperazin-1-yl)phenyl)amino)pyrazine-2-carboxamide], the IC50 in test [1] (E compounds, Table 17) was 100 to 1000 nM; in test [2] (E compounds, Table 17), 100 to 1000 nM; in test [3] (E compounds, Table 17) it was 10 to 100 nM; in test [4] (E compounds, Table 17), no more than 10 nM.

For the molecule `C[C@@H]1[C@H](NC(=O)c2ccc(C3CC3)cc2F)CCCN1c1cnc(C(N)=O)c(Nc2ccc(CN3CCN(C)CC3)cc2)n1` [Example A-106, 5-[(2R,3R)-3-(4-cyclopropyl-2-fluorobenzamido)-2-methylpiperidin-1-yl]-3-({4-[(4-methylpiperazin-1-yl)meth-yl]phenyl}amino)pyrazine-2-carboxamide], the IC50 is 100 to 1000 nM in test [1] (setting [5]), 100 to 1000 nM in test [2] (setting [5]), 100 to 1000 nM in test [3] (setting [5]) and 10 to 100 nM in test [4] (setting [5]).

For the molecule `C[C@@H]1[C@H](NC(=O)c2ccc(C3CC3)cc2F)CCCN1c1cnc(C(N)=O)c(Nc2ccc(N3CCN(C)CC3)nc2)n1` [Example A-177, 5-[(2R,3R)-3-(4-cyclopropyl-2-fluorobenzamido)-2-methylpiperidin-1-yl]-3-{[6-(4-methylpiperazin-1-yl)pyridin-3-yl]amino}pyrazine-2-caoxamide], the IC50 fell in the range of 1000 to 10000 nM in test [1] (setting [5]), 1000 to 10000 nM in test [2] (setting [5]), 100 to 1000 nM in test [3] (setting [5]) and 100 to 1000 nM in test [4] (setting [5]).

`C[C@@H]1[C@H](NC(=O)c2ccc(C(C)(C)C)cc2)CCCN1c1cnc(C(N)=O)c(Nc2ccc(N3CCN(C)CC3)cc2)n1` [Example A-184, 5-[(2R,3R)-3-(4-tert-butylbenzamido)-2-methylpiperidin-1-yl]-3-{[4-(4-methylpiperazin-1-yl)phenyl]amino}pyrazine-2-carboxamide]: the IC50 was greater than 10000 nM in test [1] (setting [5]), 1000 to 10000 nM in test [2] (setting [5]), 1000 to 10000 nM in test [3] (setting [5]) and 10 to 100 nM in test [4] (setting [5]).

On to `C=CC(=O)N[C@@H]1CCCN(c2cnc(C(N)=O)c(Nc3ccc(C4CCN(C5CC5)CC4)cc3)n2)[C@@H]1C` [Example E-93, 5-((2R,3R)-3-acrylamido-2-methylpiperidin-1-yl)-3-(4-(1-cyclopropylpiperidin-4-yl)phenylamino)pyrazine-2-carboxamide], for which the IC50 is less than 10 nM in test [1] (E compounds, Table 17); 10 to 100 nM in test [2] (E compounds, Table 17); no more than 10 nM in test [3] (E compounds, Table 17); no more than 10 nM in test [4] (E compounds, Table 17).

Turning to `C[C@@H]1[C@H](NC(=O)c2ccc(C3CC3)cc2)CCCN1c1cnc(C(N)=O)c(Nc2ccc(N3CCN(C)CC3)cc2)n1` [Example A-170, 5-[(2R,3R)-3-(4-cyclopropylbenzamido)-2-methylpiperidin-1-yl]-3-{[4-(4-methylpiperazin-1-yl)phenyl]amino}pyrazine-2-carboxamide], the IC50 was in the range of 1000 to 10000 nM in test [1] (setting [5]), 100 to 1000 nM in test [2] (setting [5]), 10 to 100 nM in test [3] (setting [5]) and 10 to 100 nM in test [4] (setting [5]).

In the case of `C[C@@H]1[C@H](NC(=O)c2cc(C(C)(C)C)nn2C)CCCN1c1cnc(C(N)=O)c(Nc2cnn(C)c2)n1` [Example E-146, 5-((2R,3R)-3-(3-(tert-butyl)-1-methyl-1H-pyrazole-5-carboxamido)-2-methylpiperidin-1-yl)-3-((1-methyl-1H-pyrazol-4-yl)amino)pyrazine-2-carboxamide], the IC50 was 1000 to 10000 nM in test [1] (E compounds, Table 17); 1000 to 10000 nM in test [2] (E compounds, Table 17); 10 to 100 nM in test [3] (E compounds, Table 17); no more than 10 nM in test [4] (E compounds, Table 17).

For the origin of these results see patent publication US20210070748A1, “INHIBITORS OF BRUTONS TYROSINE KINASE” (Pharmacyclics LLC, priority 2015, published 2021).
